Test results from patent publication US20190330141A1, “Compositions With A Cooling Effect” (The Procter & Gamble Company, priority 2018, published 2019).
Counter-ions that a name gives are not always drawn. Like-named read-outs stand apart in the source and are kept apart here.

Experiments:
human TRPM8 = molecular target: T1, human TRPM8 (Homo sapiens, UniProt Q7Z2W7); assay: TRPM8 Protocol-FLIPR Assay (intracellular Ca2+ in transfected HEK-293 cells); format: cell-based; settings: for EC50 values compared with Comp 4: comparison with the EC50 value of Comp 4
T1 construct: expressed in transfected cells; host or cells: HEK-293
T1 sequence (Q7Z2W7 whole entry): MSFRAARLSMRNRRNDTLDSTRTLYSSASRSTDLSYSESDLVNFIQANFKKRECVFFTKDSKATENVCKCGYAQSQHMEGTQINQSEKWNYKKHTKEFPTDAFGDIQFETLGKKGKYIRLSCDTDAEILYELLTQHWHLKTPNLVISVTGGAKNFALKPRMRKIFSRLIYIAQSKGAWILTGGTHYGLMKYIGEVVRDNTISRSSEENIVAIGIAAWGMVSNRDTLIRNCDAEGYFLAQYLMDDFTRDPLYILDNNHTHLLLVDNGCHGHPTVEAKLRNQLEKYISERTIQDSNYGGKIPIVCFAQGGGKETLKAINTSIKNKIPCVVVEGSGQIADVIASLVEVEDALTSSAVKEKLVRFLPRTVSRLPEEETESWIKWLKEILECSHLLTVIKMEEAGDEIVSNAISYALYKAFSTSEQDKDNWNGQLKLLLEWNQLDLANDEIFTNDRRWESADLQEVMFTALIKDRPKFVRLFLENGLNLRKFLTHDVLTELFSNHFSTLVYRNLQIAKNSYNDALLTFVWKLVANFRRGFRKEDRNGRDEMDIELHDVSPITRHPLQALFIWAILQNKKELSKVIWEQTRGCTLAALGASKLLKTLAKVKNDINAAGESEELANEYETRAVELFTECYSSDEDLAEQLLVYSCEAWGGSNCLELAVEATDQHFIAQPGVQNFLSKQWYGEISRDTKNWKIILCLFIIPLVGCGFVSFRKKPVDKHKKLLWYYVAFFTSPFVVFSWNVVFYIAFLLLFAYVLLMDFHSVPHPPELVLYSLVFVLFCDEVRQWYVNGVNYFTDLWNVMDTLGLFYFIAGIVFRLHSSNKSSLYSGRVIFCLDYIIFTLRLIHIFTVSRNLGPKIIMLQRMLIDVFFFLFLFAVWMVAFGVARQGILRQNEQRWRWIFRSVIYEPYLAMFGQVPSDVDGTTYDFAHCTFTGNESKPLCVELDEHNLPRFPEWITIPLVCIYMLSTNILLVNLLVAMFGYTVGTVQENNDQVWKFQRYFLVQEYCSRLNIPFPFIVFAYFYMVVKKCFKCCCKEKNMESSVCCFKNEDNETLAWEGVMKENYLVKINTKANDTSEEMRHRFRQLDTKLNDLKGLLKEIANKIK
Description: To determine whether TRPM8 is activated, the intracellular calcium ion (Ca^2+) level was measured from transfected cells with the TRPM8 receptor sequence (SEQ ID NO: 1). HEK-293 (human embryonic kidney) cells stably transfected with human TRPM8 were grown in 15 mL growth medium (high glucose DMEM (Dulbecco's Modification of Eagle's Medium) supplemented with 10% FBS (fetal bovine serum), 100 μg/mL penicillin/streptomycin, 5 μg/mL blasticindin, and 100 μg/mL zeocin) in a 75 cm^2 flask for 3 days at 37° C. in a mammalian cell culture incubator (Forma Scientific Model 3110, Marietta, Ohio) set at 5% CO2. Cells were detached with addition of 2 mL of trypsin-EDTA buffer (GIBCO® 25200, Invitrogen, Grand Island, N.Y.) for about 2-3 min. Trypsin was inactivated by addition of 8 mL growth medium. Cells were transferred to a 50 mL tube and centrifuged at 850 rpm for 3 minutes to remove medium. After centrifugation, a pellet of cells was formed in the bottom of the tube separating them from the supernatant solution. The supernatant was discarded and the cell pellet was suspended in 1 mL of fresh growth medium to which 5 μL (12.5 μg) of Fluo-4 AM (Molecular Probes, Inc., Eugene, Oreg.) calcium indicator was added and incubated for 30 min with gentle shaking. Fluo-4 AM is a fluorescent dye used for quantifying cellular Ca^2+ concentrations in the 100 nM to 1 μM range. At the end of 30 minutes, 45 mL of assay buffer (1×HBSS (Hank's Balanced Salt Solution), 20 mM HEPES (4-(2-Hydroxyethyl)-1-piperazineethanesulfonic acid)) was added to wash cells and the resulting mixture was then centrifuged at 850 rpm for 3 minutes at 20° C. to remove excess buffer and Fluo-4 AM calcium indicator.
The pelleted cells were re-suspended in 10 mL assay buffer and 90 μL aliquots (50,000 cells) per well delivered to a 96-well assay plate containing 10 μL of test compounds (1 mM in assay buffer, final concentration 100 μM) or buffer control and incubated at room temperature for 30 minutes. After 30 minutes, a plate (Falcon 353219, Corning Corning N.Y.) was placed into a fluorometric imaging plate reader (FLIPR384 from Molecular Devices, Sunnyvale, Calif.) and basal fluorescence recorded (excitation wave length 488 nm and emission wave length 510 nm). Then 20 μL of 100 mM of TRPM8 agonist WS5 coolant in the assay buffer was added and fluorescence recorded. For determining the direct effect of test compounds on TRPM8, fluorescence was measured immediately after addition of each compound. Additional discussion of the FLIPR method can be found in Smart et al., Characterization using FLIPR of human vanilloid VR1 receptor pharmacology, European Journal of Pharmacology 417, 51-58 (2001) and Liu et al., Development and validation of a platelet calcium flux assay using a fluorescent imaging plate reader, Analytical Biochemistry 357, 216-224 (2006).
The magnitude of the fluorescence of the active-treated cells was compared to the magnitude of the fluorescence from a benchmark agonist (WS-5), as described above. The percentage of fluorescence as a function of active dose was plotted and a sigmoidal curve was generated. Curve fitting from this dose-response curve yielded the value for TRPM8 EC50 in μM found in TABLE 8.
TRPM8 activation was determined by measuring intracellular calcium ion (Ca^2+) level from transfected cells with the TRPM8 receptor gene, as described in EXAMPLE 12, the results of which are shown in TABLE 8. EC50 values are provided in column 3 of TABLE 8, which measured the concentration of activating compound needed to […]. […]

[1] = concentration where the cooling effect could be clearly recognized; cited from earlier work
[2] = HEK-293 cells stably transfected with human TRPM8, fluorescence compared to benchmark agonist WS-5, dose-response curve fit, read-out: TRPM8 Activity EC50
[3] = less than about 1 μM, 0.6 μM, or the EC50 value of Comp 3, read-out: EC50 values

Row | SMILES | EC50 (human TRPM8; [2]) | EC50 (human TRPM8; [3]) | EC50 values compared with Comp 4 (human TRPM8) | cooling threshold [1]
1 | Cc1ccc(C(C)C)c(C(=O)NC[C@@H](NC(=O)CN)c2ccccc2)c1.Cl [Compound 6a] | – | – | about the same or less than the EC50 value of Comp 4 | –
2 | CC(C)[C@@H]1CC[C@@H](C)C[C@@H]1O [Compound 1-neomenthol, 1-neomenthol] | – | – | – | about 3,000 ppb
3 | CC(C)[C@@H]1CC[C@@H](C)C[C@H]1O [L-menthol] | – | – | – | about 800 ppb
4 | CC(C)[C@@H]1CC[C@@H](C)C[C@H]1C(=O)NC[C@@H](NC(=O)[C@H](C)N)c1ccccc1 [Comp 4, reference compound] | 9 nM | – | – | –
5 | CC(C)[C@@H]1CC[C@@H](C)C[C@H]1C(=O)Nc1ccc(CC#N)cc1 [Comp 3, reference compound] | 600 nM | – | – | –
6 | N[C@H](CNC(=O)c1ccccc1)c1ccccc1 [Comp 1, reference compound] | > 10000 nM | – | – | –
7 | CC(C)[C@@H]1CC[C@@H](C)C[C@@H]1O [d-neomenthol] | – | – | – | about 25,000 ppb
8 | Cc1ccc(C(C)C)c(OC(=O)C[C@@H](N)c2ccccc2)c1 [Comp 2, reference compound] | 12000 nM | – | – | –

Further lines, with some results ahead:

Row | EC50 (human TRPM8; [2]) | EC50 (human TRPM8; [3]) | SMILES | EC50 values compared with Comp 4 (human TRPM8) | cooling threshold [1]
9 | 1200 nM | – | CC(C)=CCC/C(C)=C/C(=O)NC[C@@H](NC(=O)CN)c1ccccc1 [Compound 4a, (S,E)-2-((2-(3,7-dimethylocta-2,6-dienamido)-1-phenylethyl)amino-2-oxoethan-1-aminium chloride] | – | –
10 | 655 nM | < 1000 nM | NCC(=O)N[C@H](CNC(=O)c1ccccc1)c1ccccc1 [Compound 1a, (S)-2-((2-benzamido-1-phenylethyl)amino)-2-oxoethan-1-aminium chloride] | – | –
11 | 17.2 nM | < 1000 nM | NCC(=O)O[C@H](CNC(=O)C12CC3CC(CC(C3)C1)C2)c1ccccc1 [Compound 11a, (S)-2-((3S,5S,7S)-adamantane-1-carboxamido)-1-phenylethyl glycinate hydrochloride] | – | –
12 | 155 nM | < 1000 nM | Cc1ccc(C(C)C)c(C(=O)NC[C@@H](N)c2ccccc2)c1 [Compound 6b, (S)-2-(2-isopropyl-5-methylbenzamido)-1-phenylethan-1-aminium chloride] | – | –
13 | 230 nM | < 1000 nM | Cc1ccc(C(C)C)c(OC(=O)C[C@@H](NC(=O)CN)c2ccccc2)c1 [Compound 7a, (R)-2-((3-(2-isopropyl-5-methylphenoxy)-3-oxo-1-phenylpropyl)amino-2-oxoethan-1-aminium chloride] | – | –
14 | 60 nM | < 1000 nM | Cc1ccc(C(C)C)c(OC(=O)C[C@@H](NC(=O)[C@@H](C)N)c2ccccc2)c1 [Compound 7b, (R)-1-(((R)-3-(2-isopropyl-5-methylphenoxy)-3-oxo-1-phenylpropyl)amino)-1-oxopropan-2-aminium chloride] | – | –
15 | 3.2 nM | < 1000 nM | Cc1ccc(C(C)C)c(C(=O)NC[C@@H](NC(=O)[C@@H](C)N)c2ccccc2)c1.Cl [Compound 6c, (R)-1-(((S)-2-(2-isopropyl-5-methylbenzamido)-1-phenylethyl)amino)-1-oxopropan-2-aminium chloride] | about the same or less than the EC50 value of Comp 4 | –
16 | 415 nM | < 1000 nM | CC(C)C(C)(C(=O)OC[C@@H](NC(=O)[C@H](C)N)c1ccccc1)C(C)C [Compound 8a, (S)-2-((S)-2-aminopropanamido)-2-phenylethyl 2-isopropyl-2,3-dimethylbutanoate hydrochloride] | – | –
17 | 28000 nM | – | C[C@@H](N)C(=O)N[C@H](CNC(=O)c1cccnc1)c1ccccc1 [Compound 2c, (R)-1-(((S)-2-(nicotinamido)-1-phenylethyl)amino)-1-oxopropan-2-aminium chloride] | – | –
18 | 57 nM | < 1000 nM | CC(C)C(C)(C(=O)OC[C@@H](NC(=O)[C@@H](C)N)c1ccccc1)C(C)C [Compound 8b, (S)-2-((R)-2-aminopropanamido)-2-phenylethyl 2-isopropyl-2,3-dimethylbutanoate hydrochloride] | – | –
19 | 6.6 nM | < 1000 nM | Cc1ccc(C(C)C)c(C(=O)NC[C@@H](NC(=O)[C@H](C)N)c2ccccc2)c1.Cl [Compound 6d, (S)-1-(((S)-2-(2-isopropyl-5-methylbenzamido)-1-phenylethyl)amino)-1-oxopropan-2-aminium chloride] | about the same or less than the EC50 value of Comp 4 | –
20 | 7.85 nM | < 1000 nM | CC(C)C(C)(C(=O)NC[C@@H](OC(=O)CN)c1ccccc1)C(C)C.Cl [Compound 10a, (S)-2-(2-isopropyl-2,3-dimethylbutanamido)-1-phenylethyl glycinate hydrochloride] | about the same or less than the EC50 value of Comp 4 | –
21 | 582 nM | < 1000 nM | C[C@@H](N)C(=O)N[C@H](CNC(=O)c1ccccc1)c1ccccc1 [Compound 1c, (R)-1-(((S)-2-benzamido-1-phenylethyl)amino)-1-oxopropan-2-aminium chloride] | – | –
22 | 1450 nM | – | CC(C)=CCC/C(C)=C/C(=O)NC[C@@H](NC(=O)[C@@H](C)N)c1ccccc1 [Compound 4b, (R)-1-(((S)-2-((E)-3,7-dimethylocta-2,6-dienamido)-1-phenylethyl)amino)-1-oxopropan-2-aminium chloride] | – | –
23 | 1.9 nM | < 1000 nM | Cc1ccc(C(C)C)c(C(=O)NC[C@@H](NC(=O)CN)c2ccccc2)c1.Cl [Compound 6a, (S)-2-((2-(2-isopropyl-5-methylbenzamido)-1-phenylethyl)amino-2-oxoethan-1-aminium chloride] | – | –
